Reference: publication PMC6540285, “Evaluation of Protein Kinase Inhibitors with PLK4 Cross-Over Potential in a Pre-Clinical Model of Cancer” (International Journal of Molecular Sciences, 2019)
Where two headings read alike, the source gives them in different places.

Experiments:
[1] = system: DAOY cells; test: PrestoBlue Cell Viability assay; assay type: cell-based; conditions: Homo sapiens, read-out: PB: IC50 of the PrestoBlue Viability assay
Method: (§1) Cell viability was assessed using the Presto Blue™ Cell Viability reagent (Thermo Fisher Scientific, Carlsbad, CA, USA) following the manufacturer’s instructions. Cells were plated in 96-well plates at the same densities described above for the proliferation assay. The fluorescence was measured after 24, 48, 72, and 96 h at concentrations ranging from 0.001 to 10 µM of the inhibitor. All assays were performed in triplicate.

[2] = system: BT-12 cells; test: PrestoBlue Cell Viability assay; assay type: cell-based
Method: as §1

[3] = system: MON cells; test: PrestoBlue Cell Viability assay; assay type: cell-based; conditions: read-out: PB: IC50 of the PrestoBlue Viability assay
Method: as §1

[4] = system: BT-16 cells; test: PrestoBlue Cell Viability assay; assay type: cell-based
Method: as §1

[5] = system: D283 cells; test: PrestoBlue Cell Viability assay; assay type: cell-based
Method: as §1

[6] = biological target: T1, AURKC (Homo sapiens, UniProt Q9UQB9); test: Z' LYTE Kinase Assay, 10-point IC50; assay type: biochemical; conditions: SelectScreen, 10-point titration
T1 sequence (Q9UQB9 1-309): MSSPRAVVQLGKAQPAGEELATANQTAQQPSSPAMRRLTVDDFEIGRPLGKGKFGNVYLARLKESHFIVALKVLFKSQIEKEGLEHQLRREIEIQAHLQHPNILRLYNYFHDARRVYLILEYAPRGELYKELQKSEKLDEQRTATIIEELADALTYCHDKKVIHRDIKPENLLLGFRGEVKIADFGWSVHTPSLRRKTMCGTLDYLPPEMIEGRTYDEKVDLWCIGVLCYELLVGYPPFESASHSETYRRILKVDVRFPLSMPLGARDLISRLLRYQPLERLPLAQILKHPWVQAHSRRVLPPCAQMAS
Excerpt: (§2) Curves were generated from the compound concentration and the corresponding percent (%) inhibition calculated for each concentration tested. For PLK4, we used the LanthaScreen Eu Kinase Binding Assay (Thermo Fisher Scientific, Carlsbad, CA, USA) that utilizes an Alexa Fluor conjugated “tracer” and an Eu-labeled anti-tag antibody to measure binding of a compound to the kinase target. For AURKs (AURKA, AURKB and AURKC) we used the Z’ LYTE Kinase Assay (Thermo Fisher Scientific, Carlsbad, CA, USA) that determines the differential sensitivity of phosphorylated and non-phosphorylated peptide substrates to proteolytic cleavage using a FRET-based readout.

[7] = system: DAOY cells; assay type: cell-based; conditions: Homo sapiens, read-out: MTT: IC50 of the proliferation assay
[8] = system: MON cells; test: cells; conditions: read-out: MTT: IC50 of the proliferation assay
[9] = system: D283 cells; assay type: cell-based
[10] = system: RT and MB cells; test: Clonogenic colony formation assay; assay type: cell-based; conditions: 50nM
Method: All cell lines were seeded at 200 cells per well in six-well plates and incubated overnight. After 24 h, the treatment medium was added and changed once a week. Cells were treated with 0.01, 0.05, 0.1, 0.2, 0.5, 1, 5, and 10 µM of PLK4i and 0.1% DMSO as control. After 14 days, the cells were washed twice with 1x PBS, fixed with formalin, and stained with Cresyl violet (ACROS Organics, Pittsburgh, PA, USA). Colonies were counted using the ImageJ software (www.imagej.nih.gov, accessed on April 21, 2017).

[11] = biological target: AURKB (Homo sapiens, UniProt Q96GD4); test: Z' LYTE Kinase Assay, 10-point IC50; assay type: biochemical; conditions: SelectScreen, 10-point titration
Sequence of AURKB (Q96GD4 whole entry): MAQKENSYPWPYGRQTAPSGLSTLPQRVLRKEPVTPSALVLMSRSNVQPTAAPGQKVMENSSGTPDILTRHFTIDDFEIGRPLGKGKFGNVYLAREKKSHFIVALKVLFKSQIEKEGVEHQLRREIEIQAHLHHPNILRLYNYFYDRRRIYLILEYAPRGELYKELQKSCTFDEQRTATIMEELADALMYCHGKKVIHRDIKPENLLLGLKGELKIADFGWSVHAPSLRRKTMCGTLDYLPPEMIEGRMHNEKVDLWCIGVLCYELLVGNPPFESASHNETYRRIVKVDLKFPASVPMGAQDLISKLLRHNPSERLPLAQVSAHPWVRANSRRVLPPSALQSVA
Excerpt: as §2

[12] = biological target: T2, AURKA (Homo sapiens, UniProt O14965); test: Z' LYTE Kinase Assay, 10-point IC50; assay type: biochemical; conditions: SelectScreen, 10-point titration
T2 sequence (O14965 1-403): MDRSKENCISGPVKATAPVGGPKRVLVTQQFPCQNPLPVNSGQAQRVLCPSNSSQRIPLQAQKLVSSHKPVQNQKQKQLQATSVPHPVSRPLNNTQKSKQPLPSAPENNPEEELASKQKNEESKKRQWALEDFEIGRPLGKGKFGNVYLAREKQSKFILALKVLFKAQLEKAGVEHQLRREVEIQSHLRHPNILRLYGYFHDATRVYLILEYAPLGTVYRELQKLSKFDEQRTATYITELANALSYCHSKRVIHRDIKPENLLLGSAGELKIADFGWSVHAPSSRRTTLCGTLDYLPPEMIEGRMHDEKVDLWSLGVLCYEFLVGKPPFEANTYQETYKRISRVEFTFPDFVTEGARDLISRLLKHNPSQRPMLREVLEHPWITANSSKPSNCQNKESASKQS
Excerpt: as §2

[13] = system: BT-12 cells; assay type: cell-based; conditions: Homo sapiens, BT-12, read-out: MTT: IC50 of the proliferation assay
[14] = system: RT and MB cells; test: Cell cycle analysis (PI flow cytometry); assay type: cell-based; conditions: for polyploidy: cell lines tested, concentration not given
Method: Cell cycle analysis was performed by flow cytometry of cells stained with Propidium Iodide (PI) (Thermo Fisher Scientific, Carlsbad, CA, USA) according to manufacturer’s instructions. Cells treated with the top PLK4i candidates and 0.1% DMSO (control) were fixed in 80% ethanol overnight, stained with PI, and then subjected to flow cytometric analysis using a BD Fortessa instrument (BD Biosciences, San Jose, CA, USA). Data was analyzed using Modfit LT from Verity Software House (Topsham, ME, USA). All experiments were performed in triplicate.

[15] = system: RT and MB cells; test: Beta-galactosidase senescence assay; assay type: cell-based; conditions: all cell lines
Method: Senescence was evaluated using the Beta-galactosidase assay (Senescence Cells Histochemical Staining Kit CS0030 (Sigma, St Louis, MO, USA) and clonogenic recovery assay as previously described.

[16] = system: BT-16 cells; assay type: cell-based; conditions: BT-16, read-out: MTT: IC50 of the proliferation assay
[17] = biological target: T3, PLK4 (Homo sapiens, UniProt O00444); test: LanthaScreen Eu Kinase Binding Assay, 10-point IC50; conditions: SelectScreen, 10-point titration
T3 sequence (O00444 1-970): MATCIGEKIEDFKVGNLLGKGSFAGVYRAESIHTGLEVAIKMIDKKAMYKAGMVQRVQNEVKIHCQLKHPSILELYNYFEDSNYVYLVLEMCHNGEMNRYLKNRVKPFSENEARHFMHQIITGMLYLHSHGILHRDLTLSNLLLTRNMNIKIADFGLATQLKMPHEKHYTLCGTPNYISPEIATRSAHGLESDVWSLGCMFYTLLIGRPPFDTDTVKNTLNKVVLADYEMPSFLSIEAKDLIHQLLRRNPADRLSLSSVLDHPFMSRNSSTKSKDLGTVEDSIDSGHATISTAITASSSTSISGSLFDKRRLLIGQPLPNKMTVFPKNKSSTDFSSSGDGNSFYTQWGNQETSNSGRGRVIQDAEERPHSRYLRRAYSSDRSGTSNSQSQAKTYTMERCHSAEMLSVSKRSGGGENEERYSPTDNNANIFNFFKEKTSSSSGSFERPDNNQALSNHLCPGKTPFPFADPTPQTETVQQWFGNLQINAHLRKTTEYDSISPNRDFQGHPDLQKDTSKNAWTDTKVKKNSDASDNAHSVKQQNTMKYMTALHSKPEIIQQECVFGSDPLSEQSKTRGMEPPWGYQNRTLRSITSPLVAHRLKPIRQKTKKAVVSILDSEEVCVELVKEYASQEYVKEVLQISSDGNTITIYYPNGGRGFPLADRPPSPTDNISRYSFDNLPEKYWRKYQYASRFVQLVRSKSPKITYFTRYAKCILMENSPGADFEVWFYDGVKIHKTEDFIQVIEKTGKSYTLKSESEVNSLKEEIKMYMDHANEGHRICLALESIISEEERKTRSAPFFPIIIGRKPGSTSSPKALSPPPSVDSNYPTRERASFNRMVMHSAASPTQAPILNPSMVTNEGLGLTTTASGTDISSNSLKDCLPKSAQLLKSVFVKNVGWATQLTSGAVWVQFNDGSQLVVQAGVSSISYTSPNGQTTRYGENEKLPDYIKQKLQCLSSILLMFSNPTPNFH
Excerpt: as §2

[18] = Homo sapiens, BT-12; read-out: PB: IC50 of the PrestoBlue Viability assay
[19] = BT-16; read-out: PB: IC50 of the PrestoBlue Viability assay
[20] = D283, read-out: PB: IC50 of the PrestoBlue Viability assay
[21] = D283, read-out: MTT: IC50 of the proliferation assay
[22] = Homo sapiens, BT-12, read-out: PB: IC50 of the PrestoBlue Viability assay
[23] = BT-16, read-out: PB: IC50 of the PrestoBlue Viability assay

| SMILES | IC50 [1] [nM] | IC50 [2, 18] [nM] | IC50 [4, 19] [nM] | IC50 [6] [nM] | IC50 [7] [nM] | IC50 [8] [nM] | IC50 [3] [nM] | IC50 [5, 20] [nM] | colony formation [10] | IC50 [11] [nM] | IC50 [12] [nM] | IC50 [13] [nM] | cell senescence (beta-galactosidase) [15] | IC50 [9, 21] [nM] | IC50 [16] [nM] | IC50 [17] [nM] | IC50 [2, 22] [nM] | IC50 [4, 23] [nM] | polyploidy [14] | also measured |
| --- | --- | --- | --- | --- | --- | --- | --- | --- | --- | --- | --- | --- | --- | --- | --- | --- | --- | --- | --- | --- |
| COc1cc(Nc2ncc3c(n2)-c2ccc(Cl)cc2C(c2c(F)cccc2OC)=NC3)ccc1C(=O)O [alisertib] | 31 | > 10000 | > 10000 | 9.43 | 340 | 358 |  |  |  |  |  |  |  |  |  |  |  |  |  | IC50 ([3]; MON): 213 nM; IC50 ([5]; D283; read-out: PB: IC50 of the PrestoBlue Viability assay): 9130 nM; IC50 ([9]; D283; read-out: MTT: IC50 of the proliferation assay): 9530 nM |
| COc1ccc2c(c1)/C(=C\c1ccc3c(/C=C/c4ccc(N5CCN(C)CC5)nc4)n[nH]c3c1)C(=O)N2 [CFI-400437] | 768 | 604 | > 10000 | 4.88 | 684 | 722 | 640 | 6300 | complete inhibition of colony formation in all cell lines | 13.1 | 37.2 | 61.6 | induction of cell senescence | > 10000 | 1920 | 1.55 |  |  |  | polyploidy (cell cycle analysis) ([14]; 500 nM): induction of polyploidy |
| COc1cc2c(cc1F)C(c1ccccc1Cl)=Nc1c(n[nH]c1C)N2 [R1530] | 1850 | > 10000 | > 10000 | 30.9 | 829 | 3200 | 3750 | > 10000 |  | 42.6 | 6.22 | > 10000 |  | > 10000 | 3900 | 7.06 |  |  |  |  |
| COc1ccc2c(c1)[C@]1(C[C@H]1c1ccc3c(/C=C/c4ccc(CN5C[C@@H](C)O[C@@H](C)C5)cc4)n[nH]c3c1)C(=O)N2 [CFI-400945, (1r,2s).2-(3-((e).4-(((cis).2,6-dimethylmorpholino)methyl)styryl). 1h.Indazol-6-yl)-5′-methoxyspiro[cyclopropane-1,3′-indolin]-2′-one] | 94 |  |  |  |  |  | 5130 | 8400 |  |  |  |  |  |  |  |  | 8470 | 5830 |  |  |
| COc1c(Nc2cc(C)[nH]n2)nc(Sc2ccc(S(=O)(=O)Cc3cccc([N+](=O)[O-])c3F)cc2F)nc1N1CCCCC1 [centrinone B] | > 10000 | 6320 | > 10000 | 5810 | > 10000 | > 10000 | > 10000 | 1740 |  | 10000 | 623 | 5190 |  | 1240 | 5470 | 8.69 |  |  | did not induce polyploidy |  |
| COc1c(Nc2cc(C)[nH]n2)nc(Sc2ccc(S(=O)(=O)Cc3cccc([N+](=O)[O-])c3F)cc2F)nc1N1CCOCC1 [centrinone] | 4500 |  |  | 493 |  |  | 5000 |  | complete inhibition of colony formation in all cell lines except the MB cell line DAOY and the RT cell line BT-16 | 680 | 108 |  | induction of cell senescence |  |  |  | 3400 | 2220 | did not induce polyploidy | polyploidy (cell cycle analysis) ([14]; 1µM): no polyploidy |
